SMILES strings stand for the structures. Where only a bound is given, the exact number is not on record here.

Some targets named below: PIK3CG (human) (UniProt P48736); PIK3CD (Human) (UniProt O00329); PIK3CB (Human) (UniProt P42338).
What all share (assay): Enzyme Assay

Sequence of PIK3CB (Human) (P42338 whole entry, looked up): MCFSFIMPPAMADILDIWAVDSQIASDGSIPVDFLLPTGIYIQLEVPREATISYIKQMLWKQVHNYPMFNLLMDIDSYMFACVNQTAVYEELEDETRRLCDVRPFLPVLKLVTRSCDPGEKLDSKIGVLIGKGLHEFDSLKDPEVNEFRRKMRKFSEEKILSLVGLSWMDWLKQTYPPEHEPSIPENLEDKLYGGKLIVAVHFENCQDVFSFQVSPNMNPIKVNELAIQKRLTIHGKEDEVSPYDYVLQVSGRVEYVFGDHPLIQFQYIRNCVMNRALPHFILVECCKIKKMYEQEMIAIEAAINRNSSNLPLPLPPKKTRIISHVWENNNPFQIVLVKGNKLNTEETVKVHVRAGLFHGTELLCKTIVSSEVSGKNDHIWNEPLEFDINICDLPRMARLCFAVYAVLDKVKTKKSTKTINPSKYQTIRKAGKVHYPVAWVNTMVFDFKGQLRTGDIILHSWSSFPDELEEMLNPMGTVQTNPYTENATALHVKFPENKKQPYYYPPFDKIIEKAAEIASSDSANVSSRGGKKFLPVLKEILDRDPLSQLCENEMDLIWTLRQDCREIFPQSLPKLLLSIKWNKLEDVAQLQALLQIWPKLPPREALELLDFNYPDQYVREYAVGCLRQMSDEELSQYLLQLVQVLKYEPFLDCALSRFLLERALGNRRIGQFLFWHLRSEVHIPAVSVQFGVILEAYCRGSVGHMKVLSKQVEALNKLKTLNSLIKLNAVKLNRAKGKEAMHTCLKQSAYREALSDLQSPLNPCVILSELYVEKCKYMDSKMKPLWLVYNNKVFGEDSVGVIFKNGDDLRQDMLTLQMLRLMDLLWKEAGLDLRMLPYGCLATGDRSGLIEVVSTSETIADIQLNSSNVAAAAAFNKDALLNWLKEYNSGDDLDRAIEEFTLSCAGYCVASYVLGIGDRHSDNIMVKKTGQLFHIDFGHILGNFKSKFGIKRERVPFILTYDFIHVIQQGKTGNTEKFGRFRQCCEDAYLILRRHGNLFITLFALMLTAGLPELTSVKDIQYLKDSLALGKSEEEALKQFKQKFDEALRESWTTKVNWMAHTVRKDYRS
Sequence of PIK3CD (Human) (O00329 whole entry, looked up): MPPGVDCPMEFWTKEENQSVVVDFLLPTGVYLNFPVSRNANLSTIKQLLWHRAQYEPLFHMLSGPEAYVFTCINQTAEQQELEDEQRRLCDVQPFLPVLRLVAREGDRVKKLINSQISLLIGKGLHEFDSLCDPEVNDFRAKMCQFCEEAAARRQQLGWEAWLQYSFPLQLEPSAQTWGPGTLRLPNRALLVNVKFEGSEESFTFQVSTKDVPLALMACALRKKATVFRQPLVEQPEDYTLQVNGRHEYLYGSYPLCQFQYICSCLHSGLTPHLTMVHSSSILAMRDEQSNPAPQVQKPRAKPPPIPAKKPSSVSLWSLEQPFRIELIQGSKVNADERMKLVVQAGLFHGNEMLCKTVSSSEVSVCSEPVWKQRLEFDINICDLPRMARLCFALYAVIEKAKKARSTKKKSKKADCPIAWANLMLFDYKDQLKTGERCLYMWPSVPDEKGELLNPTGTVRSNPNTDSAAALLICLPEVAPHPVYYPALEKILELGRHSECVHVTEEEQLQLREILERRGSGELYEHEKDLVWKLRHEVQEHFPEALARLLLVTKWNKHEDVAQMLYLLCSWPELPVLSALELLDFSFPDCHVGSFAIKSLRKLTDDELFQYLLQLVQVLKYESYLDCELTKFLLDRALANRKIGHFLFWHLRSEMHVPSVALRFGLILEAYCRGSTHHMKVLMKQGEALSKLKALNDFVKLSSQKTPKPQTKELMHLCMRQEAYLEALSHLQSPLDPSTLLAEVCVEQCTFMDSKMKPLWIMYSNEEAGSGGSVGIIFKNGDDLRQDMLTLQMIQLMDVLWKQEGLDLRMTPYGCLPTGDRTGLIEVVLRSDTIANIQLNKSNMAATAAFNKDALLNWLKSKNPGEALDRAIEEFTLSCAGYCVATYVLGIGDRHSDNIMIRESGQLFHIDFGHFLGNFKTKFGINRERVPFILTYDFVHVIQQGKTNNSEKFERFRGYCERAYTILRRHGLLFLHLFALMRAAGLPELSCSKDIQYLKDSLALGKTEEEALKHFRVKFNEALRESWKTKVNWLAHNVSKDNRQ
Sequence of PIK3CG (human) (P48736 whole entry, looked up): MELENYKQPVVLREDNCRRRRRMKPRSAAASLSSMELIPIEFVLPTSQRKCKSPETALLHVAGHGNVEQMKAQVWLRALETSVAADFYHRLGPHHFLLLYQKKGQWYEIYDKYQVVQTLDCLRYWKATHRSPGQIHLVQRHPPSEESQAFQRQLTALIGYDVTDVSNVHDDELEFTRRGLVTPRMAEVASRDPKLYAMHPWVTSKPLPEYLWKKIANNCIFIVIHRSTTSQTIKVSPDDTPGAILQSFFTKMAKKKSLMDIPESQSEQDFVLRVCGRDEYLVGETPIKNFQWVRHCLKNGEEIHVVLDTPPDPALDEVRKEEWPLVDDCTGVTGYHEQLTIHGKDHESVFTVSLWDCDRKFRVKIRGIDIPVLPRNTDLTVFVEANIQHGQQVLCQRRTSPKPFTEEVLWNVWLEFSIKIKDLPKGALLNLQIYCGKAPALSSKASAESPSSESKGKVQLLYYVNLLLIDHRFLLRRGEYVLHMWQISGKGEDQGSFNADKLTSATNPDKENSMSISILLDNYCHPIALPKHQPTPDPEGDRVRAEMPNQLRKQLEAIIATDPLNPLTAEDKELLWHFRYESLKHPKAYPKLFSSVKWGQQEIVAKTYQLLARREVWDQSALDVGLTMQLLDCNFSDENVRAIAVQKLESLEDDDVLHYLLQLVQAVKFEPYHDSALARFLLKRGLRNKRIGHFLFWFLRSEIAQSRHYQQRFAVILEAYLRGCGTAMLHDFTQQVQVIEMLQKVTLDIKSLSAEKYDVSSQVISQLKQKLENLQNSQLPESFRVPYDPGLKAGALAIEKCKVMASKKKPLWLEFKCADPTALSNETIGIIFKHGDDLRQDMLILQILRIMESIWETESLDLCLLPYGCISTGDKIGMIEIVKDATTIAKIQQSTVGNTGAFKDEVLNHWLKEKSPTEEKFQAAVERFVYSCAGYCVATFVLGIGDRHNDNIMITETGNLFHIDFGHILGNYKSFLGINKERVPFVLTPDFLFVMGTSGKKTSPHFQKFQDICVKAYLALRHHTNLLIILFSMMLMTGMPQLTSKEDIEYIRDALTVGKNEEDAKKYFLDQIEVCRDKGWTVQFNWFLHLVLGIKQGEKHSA

`Cc1c[nH]nc1-n1c([C@@H](NC2=NC(N)=NC3=NN=C(Br)C32)C2CC2)nc2cccc(Cl)c2c1=O` (stereo partly drawn): at PIK3CG (human), the IC50 (usually the concentration that gives 50% inhibition) was over 10 µM.
Take `CC(C)Cc1cc(-n2c([C@H](C)Nc3ncnc(N)c3C#N)nc3cccc(Cl)c3c2=O)n[nH]1`: at PIK3CG (human), the IC50 is over 10 µM.
With `Nc1nc(N)c(Cl)c(N[C@H](c2nc3c(Cl)cc(F)cc3c(=O)n2-c2cc[nH]n2)C2CC2)n1`, on PIK3CG (human), the IC50 was over 10 µM.
Turning to `CC(C)[C@H](Nc1nc(N)nc(N)c1Cl)c1nc2cccc(Cl)c2c(=O)n1-c1cc[nH]n1`, the IC50 against PIK3CG (human) worked out at 10 µM.
As for `C[C@H](Nc1nc(N)nc(N)c1C#N)c1nc2ccc(Cl)cc2c(=O)n1-c1cc[nH]n1`, the IC50 against PIK3CG (human) stood at 9.3 µM; at PIK3CD (Human), 140 nM.
`C[C@H](Nc1nc(N)nc(C(F)F)c1Cl)c1nc2cc(F)cc(F)c2c(=O)n1-c1cc[nH]n1` yielded an IC50 against PIK3CB (Human) of over 10 µM.
Regarding `C[C@H](Nc1nc(N)nc(N)c1C#N)c1nc2c(C(F)F)cccc2c(=O)n1-c1cc[nH]n1`, the IC50 is over 10 µM on PIK3CG (human), 0.004 µM on PIK3CB (Human) and 9 nM against PIK3CD (Human).
On PIK3CG (human), `Nc1nc(N)c(Cl)c(N[C@H](c2nc3cccc(Cl)c3c(=O)n2-c2cc[nH]n2)C2CCC2)n1` displayed an IC50 of over 10 µM.
At PIK3CB (Human), `C[C@H](Nc1nc(N)nc(C(F)F)c1Cl)c1nc2c(F)c(F)ccc2c(=O)n1-c1cc[nH]n1` returned an IC50 of over 10 µM.
On to `CC[C@H](Nc1ncnc2[nH]cc(F)c12)c1nc2c(Cl)ccc(Cl)c2c(=O)n1-c1cc[nH]n1`, for which the IC50 against PIK3CD (Human) came out at 3 nM. This counts as single-digit nanomolar.

The values above are taken from the Kinase Knowledgebase extract (Sharma et al. 2016).
